The values that follow come from patent US5521180A, “Morpholine derivative” (Yamanouchi Pharmaceutical Co., Ltd., priority 1993, dated 1996).

Molecules are shown by their SMILES. Structures can show the parent of a compound that is named as a salt. Where two headings read alike, the source gives them in different places. Where only a bound is given, the exact number is not on record here.

As a reminder, the ED50 is the dose that gives a 50% effect, or the effect in half of the subjects. Broadly, the Ki is the dissociation constant of the complex between target and ligand, obtained from inhibition or displacement. One may read the IC50 as the concentration needed to halve the response being measured.

One data set deals with 5-HT reuptake. Put plainly: Enhancement of the action of L-5-hydroxytryptophan in mice (5-HT reuptake inhibition, in vivo). Set-up: species or system Male ICR mice. As to conditions: Mus musculus, ip, intraperitoneal, 30 minutes before 90 mg/kg i.v. L-5-hydroxytryptophan. How it is done: Enhancement of the action of L-5-hydroxytryptophan which is a 5-HT precursor was tested [Naunyn-Schmiedeberg's Archives of Pharmacology, 311, 185-192 (1980)]. Male ICR mice weighing from 30 to 40 g were used. A test drug was intraperitoneally administered, and 30 minutes later 90 mg/kg of L-5-hydroxytryptophan was intravenously injected. […] The test drug was evaluated from the ED50 in manifestation of each action.

The target in another data set is T1, 5-HT2 receptors (Rattus norvegicus, UniProt P14842).
T1 construct: a rat cerebral cortex membrane preparation (about 0.2 mg-protein); from tissue; host or cells: rat cerebral cortex membrane preparation
T1 sequence (P14842 whole entry): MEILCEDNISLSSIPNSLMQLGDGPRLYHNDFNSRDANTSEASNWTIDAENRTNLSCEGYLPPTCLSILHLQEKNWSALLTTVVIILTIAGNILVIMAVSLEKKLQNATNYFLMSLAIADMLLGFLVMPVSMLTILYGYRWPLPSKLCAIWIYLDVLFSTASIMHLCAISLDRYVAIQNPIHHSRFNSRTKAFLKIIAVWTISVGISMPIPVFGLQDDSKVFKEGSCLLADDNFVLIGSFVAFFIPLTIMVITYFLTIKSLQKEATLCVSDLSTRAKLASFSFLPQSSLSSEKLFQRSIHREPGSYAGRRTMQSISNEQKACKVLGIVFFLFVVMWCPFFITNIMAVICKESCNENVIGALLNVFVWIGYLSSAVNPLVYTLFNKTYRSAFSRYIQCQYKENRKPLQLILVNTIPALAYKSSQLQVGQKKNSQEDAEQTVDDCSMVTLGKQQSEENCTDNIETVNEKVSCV
Put plainly: [3H]-Ketanserin binding, antagonism for 5-HT2 receptors (in vitro). The conditions noted are these: rat cerebral cortex membrane, about 1.0 nM [3H]-Ketanserin, 25° C., 30 minutes; read-out: Antagonism for 5-HT2 Receptor (Ki Value). How it is done: The degree of inhibition of a test compound on binding of [^3 H]-Ketanserin was tested. The method of Leysen JE, et al. described in Mol. Pharmacol., 21, 301 (1982) was used. A buffer solution (0.5 ml in total) containing about 1.0 nM of [^3 H]-Ketanserin, a rat cerebral cortex membrane preparation (about 0.2 mg-protein), and a test compound was allowed to react at 25° C. for 30 minutes. Thereafter, the bound labeled ligand was separated by suction filtration. The amount of the ligand nonspecifically bound to the 5-HT2 receptors, which was obtained by adding excess non-labeled Metergoline (10 μM), was subtracted from the total amount of the bound ligand to obtain the amount of the ligand specifically bound to 5-HT2 receptors. The IC50 (the concentration at which the amount of the specifically bound ligand is reduced by 50%) for each compound was calculated and converted to a dissociation constant (Ki value).

The next data set concerns the target T2, 5-HT reuptake sites (Rattus norvegicus, UniProt P31652).
T2 construct: a rat cerebral cortex membrane preparation (about 0.4 mg-protein); from tissue; host or cells: rat cerebral cortex membrane preparation
Nature of the data set: [3H]-Citalopram binding to 5-HT reuptake sites (5-HT reuptake inhibition, in vitro). As to conditions: rat cerebral cortex membrane, about 1.0 nM [3H]-Citalopram, 25° C., 60 minutes. The procedure:
The 5-HT reuptake inhibitory activity was tested by examining the degree of inhibition of a test compound on binding of [^3 H]-Citalopram to 5-HT reuptake sites.
The method of D'amato RJ, et al. described in J. Pharmacol. Exp. Ther., 242, 364 (1987) was used. A buffer solution (0.5 ml) containing about 1.0 nM of [^3 H]-Citalopram, a rat cerebral cortex membrane preparation (about 0.4 mg-protein), and a test compound was allowed to react at 25° C. for 60 minutes. Thereafter, the labeled ligand of bound form was separated form the labeled ligand of free form by suction filtration. The amount of the ligand nonspecifically bound to the 5-HT reuptake sites, which was obtained by adding excess non-labeled Fluoxetine (10 μM), was subtracted from the total amount of the bound ligand to obtain the amount of the ligand specifically bound to the 5-HT reuptake sites. The IC50 (the concentration which reduces the amount of the specifically bound ligand by 50%) for each compound was calculated and converted to a dissociation constant (Ki value). in vivo Test: […]

Another data set deals with [3H]-dopamine uptake. Put plainly: [3H]-dopamine uptake into corpus striatum synaptosomes. Type of data set: biochemical, Wistar male rat. The procedure:
(§1) The degree of inhibition of a test compound on uptake of [^3 H]-5-HT, [^3 H]-noradrenaline and [^3 H]-dopamine into synaptosomes was examined. The method of Harada and Maeno described in Biochem. Pharmacol., 28, 2645 (1979) was used. A Wistar male rat was decapitated and the cerebral cortex and the corpus striatum were taken out. The synaptosome fraction of the cerebral cortex was prepared for 5-HT and noradrenaline uptake and that of the corpus striatum was prepared for dopamine uptake. Each synaptosome fraction was incubated at 37° C. for 3 minutes, and [^3 H]-5-HT, [^3 H]-noradrenaline and [^3 H]-dopamine (10^-7 M) was added to the respective fraction. After further incubation for 2 minutes, the system was cooled with ice (0° C.) to stop the reaction. Then, the reaction system was filtered through a Whatman CF/B glass filter, and the radioactivity trapped on the filter was measured with a liquid scintillation counter. The nonspecific activity was obtained by using a reaction system containing no test drug and having been incubated at 0° C. The test drug was evaluated from the IC50 (the concentration at which the uptake of each radioactive ligand reduced by 50%).

The test system of another data set is [3H]-5-HT uptake. Put plainly: [3H]-5-HT uptake into cerebral cortex synaptosomes. The conditions noted are these: rat cerebral cortex synaptosomes, 10^-7 M ligand, 37° C.; read-out: IC50 in inhibition of [3H]-5-HT uptake. It is filed as biochemical, Wistar male rat. How it is done: as §1
In data set [1] the test system is [3H]-noradrenaline uptake. Put plainly: [3H]-noradrenaline uptake into cerebral cortex synaptosomes. Type of data set: biochemical, Wistar male rat. The procedure:
as §1

For data set [2] the following is noted: clinical use, Physician's Desk Reference 1990; cited from earlier work.
In a further data set the test system is α1 receptors. As to conditions: background; causes side effects based thereon; cited from earlier work.
Where [3] appears, read: selectivity, about 30 or more times.

T2 sequence (P31652 whole entry): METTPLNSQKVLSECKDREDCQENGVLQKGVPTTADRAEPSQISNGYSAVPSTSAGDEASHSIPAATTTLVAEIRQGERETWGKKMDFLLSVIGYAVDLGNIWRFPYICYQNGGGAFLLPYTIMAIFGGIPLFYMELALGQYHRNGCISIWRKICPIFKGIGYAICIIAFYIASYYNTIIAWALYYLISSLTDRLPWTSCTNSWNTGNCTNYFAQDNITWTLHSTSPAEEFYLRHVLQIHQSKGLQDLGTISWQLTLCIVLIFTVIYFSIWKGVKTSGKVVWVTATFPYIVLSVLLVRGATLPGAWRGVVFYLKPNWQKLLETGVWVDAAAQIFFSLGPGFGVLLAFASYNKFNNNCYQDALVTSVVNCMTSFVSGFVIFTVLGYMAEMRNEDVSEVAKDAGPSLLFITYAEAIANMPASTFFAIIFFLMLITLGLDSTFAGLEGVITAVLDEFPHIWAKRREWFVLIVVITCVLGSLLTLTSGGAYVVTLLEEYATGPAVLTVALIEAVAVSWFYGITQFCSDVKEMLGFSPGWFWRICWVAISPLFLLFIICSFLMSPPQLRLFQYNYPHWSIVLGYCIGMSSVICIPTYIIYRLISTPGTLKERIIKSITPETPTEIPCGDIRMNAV

On to `Fc1ccc(OCC2CNCCO2)c2c1CCC2.O=C(O)/C=C/C(=O)O` (single isomer, unassigned; (-)) [Example 4, (-)-2-[[(7-fluoro-4-indanyl)oxy]methyl]morpholine fumarate], for which the ED50 turned out to be 7.2 mg/kg in the data set on 5-HT reuptake (read-out: ED50 in manifestation of head shaking behavior), 14.1 mg/kg with 5-HT reuptake (read-out: ED50 in manifestation of hind leg abduction) and 6.3 mg/kg in the data set on 5-HT reuptake (read-out: ED50 in manifestation of tremor). For the same molecule, the inhibition constant (Ki) came to 0.1 µM at 5-HT2 receptors and 0.021 µM on 5-HT reuptake sites.
Regarding `Fc1ccc(OCC2CNCCO2)c2c1CCC2` (single isomer, unassigned; (-)) [Example 5, (-)-2-[[(7-fluoro-4-indanyl)oxy]methyl]morpholine hydrochloride], the inhibition constant (Ki) came to 0.1 µM on 5-HT2 receptors and 0.021 µM on 5-HT reuptake sites.
As for `Fc1ccc(OCC2CNCCO2)c2c1CCC2` (stereo not drawn) [Example 1, 2-[[(7-fluoro-4-indanyl)oxy]methyl]morpholine], the half-maximal inhibitory concentration (IC50) is not below 10 µM in data set [3H]-dopamine uptake (rat corpus striatum synaptosomes, 10^-7 M ligand, 37° C., read-out: IC50 in inhibition of [3H]-dopamine uptake); 0.227 µM in data set [3H]-5-HT uptake; 6.72 µM in data set [1] (rat cerebral cortex synaptosomes, 10^-7 M ligand, 37° C., read-out: IC50 in inhibition of [3H]-noradrenaline uptake). Further, the “[3H]-5-HT uptake inhibitory activity relative to [3H]-dopamine uptake inhibitory activity” value in data set [3H]-dopamine uptake (setting [3]) is not below 30 times. Moreover, the “[3H]-5-HT uptake inhibitory activity relative to [3H]-noradrenaline uptake inhibitory activity” value in data set [1] (setting [3]) is not below 30 times.
On to `CNCCC(Oc1ccc(C(F)(F)F)cc1)c1ccccc1` (stereo not drawn) [Fluoxetine], for which the “side effects during the course of therapy” value in data set [2] is “induces anxiety or insomnia”.
As for `O=c1n(CCCN2CCN(c3cccc(Cl)c3)CC2)nc2ccccn12` [Trazodone], in the data set with α1 receptors, the “affinity to α1 receptors (in words)” value is given as “exhibits affinity to α1receptors”.
Regarding `c1cc2c(c(OCC3CNCCO3)c1)CCC2` (stereo not drawn) [compound 1, 2-[[(4-Indanyl)oxy]methyl]morpholine, reference compound], the values for the Ki at 5-HT2 receptors and on 5-HT reuptake sites were 1.03 µM and 0.052 µM, respectively.
The matching figures for `C1=Cc2cccc(OCC3CNCCO3)c2C1` (stereo not drawn) [compound 2, 2-[[(7-Indenyl)oxy]methyl]morpholine, reference compound]: 4.67 µM and 0.022 µM.
